# In publication PMC9000336, “Development of Bicyclo[3.1.0]hexane-Based A3 Receptor Ligands: Closing the Gaps in the Structure–Affinity Relationships” (Molecules, 2022):
# System: P1 receptor
# Assay: P1 receptor binding studies (A1, A2A, A2B and A3), overall statement
# Set-up: species or system human
# Conditions: all four subtypes
# Experimental: A1 Receptor: Membrane aliquots containing 5 µg (CHOhA1R) protein were incubated in a total volume of 100 µL assay buffer (50 mM Tris-HCl, pH 7.4) at 25 °C for 1 h. […] Nonspecific binding was determined in the presence of 100 µM N^6-cyclopentyladenosine (CPA). Incubations were terminated by rapid vacuum filtration to separate the bound and free radioligand through prewetted 96-well GF/B filter plates using a PerkinElmer Filtermate-harvester (Perkin Elmer, Groningen, the Netherlands). Filters were subsequently washed 12 times with ice-cold 50 mM Tris-HCl, pH 7.4.
# Nonspecific binding was determined in the presence of 100 µM adenosine-5-N-ethyluronamide (NECA). Incubations were terminated by rapid vacuum filtration to separate the bound and free radioligand through prewetted 96-well GF/B filter plates using a PerkinElmer Filtermate-harvester (Perkin Elmer, Groningen, The Netherlands). Filters were subsequently washed 12 times with ice-cold 50 mM Tris-HCl, pH 7.4.
# A2B Receptor: Membrane aliquots containing 30 µg (CHO-spap-hA2BR) total protein were incubated in a total volume of 100 µL assay buffer (0.1% CHAPS in 50 mM TrisHCl, pH 7.4) at 25 °C for 2 h. […] Nonspecific binding was determined in the presence of 10 µM ZM241385. Incubations were terminated by rapid vacuum filtration to separate the bound and free radioligand through prewetted 96-well GF/B filter plates using a PerkinElmer Filtermate-harvester (Perkin Elmer, Groningen, the Netherlands). Filters were subsequently washed 12 times with ice-cold 0.1% BSA in 50 mM Tris-HCl, pH 7.4.
# A3 Receptor: Membrane aliquots containing 15 µg (CHOhA3R) total protein were incubated in a total volume of 100 µL assay buffer (50 mM Tris-HCl, pH 8.0, supplemented with 10 mM MgCl2, 1 mM EDTA and 0.01% (w/v) CHAPS) at 25 °C for 2 h. […] Nonspecific binding was determined in the presence of 100 µM NECA. […]
# All experimental data were analyzed using the non-linear regression curve fitting program GraphPad Prism 7.0 (GraphPad Software Inc., San Diego, CA, USA). […]
row,Compound,P1 receptor affinity
1,"Nc1cc(Cl)c2ncn([C@H]3[C@H](O)[C@H](O)[C@]4(CO)C[C@H]34)c2n1 [Compound 11, (1R,2R,3S,4R,5S)-4-(5-Amino-7-chloro-3H-imidazo[4,5-b]pyridin-3-yl)-1-(hydroxymethyl)bicyclo[3.1.0]hexane-2,3-diol]",no P1 receptor affinity
2,"OC[C@@]12C[C@@H]1[C@@H](n1cnc3c(Cl)cc(Cl)nc31)[C@H](O)[C@@H]2O [Compound 12, (1R,2R,3S,4R,5S)-4-(5,7-Dichloro-3H-imidazo[4,5-b]pyridin-3-yl)-1-(hydroxymethyl)bicyclo[3.1.0]hexane-2,3-diol]",no P1 receptor affinity
3,"CSc1cc(N)c2ncn([C@H]3[C@H](O)[C@H](O)[C@]4(CO)C[C@H]34)c2n1 [Compound 17, (1R,2R,3S,4R,5S)-4-(7-Amino-5-methylthio-3H-imidazo[4,5-b]pyridin-3-yl)-1-(hydroxymethyl)bicyclo[3.1.0]hexane-2,3-diol]",loss of P1 receptor affinity
